# pKi: −log10 of the molar value. Where two headings read alike, the source gives them in different places. Numbered stars: 1 amine (or outer) side, 2 acyl side, 3 side chain; on linkers, the order of the positions; unused ones are H or OH. Bridge positions count the residues as written; N and C are the ends. Square brackets hold non-standard residues; d marks the D form. Peptide text beside a SMILES is read from it. Gly(N-CH2CH2-imidazol-4-yl) = O=C(O)CNCCc1c[nH]cn1; 1Nal = N[C@@H](Cc1cccc2ccccc12)C(=O)O; His(τ-Me) = Cn1cnc(C[C@H](N)C(=O)O)c1; TBMB = c1c(C[*:1])cc(C[*:3])cc1C[*:2]; His(π-Me) = Cn1cncc1C[C@H](N)C(=O)O; 2Thi = N[C@@H](Cc1cccs1)C(=O)O; β3hQ = NC(=O)CC[C@H](N)CC(=O)O; Phg = N[C@H](C(=O)O)c1ccccc1; Tle = CC(C)(C)[C@H](N)C(=O)O
# Columns and labels:
# [1] = Plasma stability profiling Method #1 (MALDI-TOF, 35% plasma), rat plasma; format: in vitro ADME; settings: Table 12; method #1
# Method: A rapid plasma stability profiling assay was developed that employed mass spectrometric detection (MALDI-TOF, Voyager DE, Applied Biosystems) of the parent mass, until the time when the parent peptide mass was no longer observable. Specifically, 200 uM of peptide was incubated in the presence of 35% rat or human plasma (Sera labs, using citrate as anticoagulant) at 37 deg C., which was supplemented with 1×PBS (derived from a 10×PBS Stock, Sigma). At various time points (i.e. t=0, 3, 24 hrs, henceafter daily up to 10 days), 2 uL of sample was added to 18 uL of 30 mM ammonium bicarbonate in a 1:1 mixture of acetonitrile:H2O. Samples were frozen at −80 deg C. until the time of analysis. For mass spectrometric analysis that determines the approximate detection window of the peptide, the acetonitrile:H2O-diluted sample of a given time point was spotted directly (0.7 uL) onto the MALDI plate. Matrix (alpha-cyanocinnamic acid, Sigma, prepared as a saturated solution in 1:1 acetonitrile:water containing 0.1% trifluoroacetic acid) was layered over the sample (1 uL). At a similar laser intensity setting on the MALDI TOF, the time could then be determined until parent peptide was no longer detectable. It should be noted that this is a qualitative assay serves to detect relative changes in plasma stability.
# human plasma Kallikrein = molecular target: T1, human plasma Kallikrein (Homo sapiens, UniProt P03952); test: Functional enzyme inhibition assay with fluorogenic substrate Z-PheArg-AMC, human plasma Kallikrein; format: biochemical; settings: for pKi: read-out: Ki; for Ki: Table 24a
# T1 construct: purchased Stratech, UK
# T1 sequence (P03952 20-638): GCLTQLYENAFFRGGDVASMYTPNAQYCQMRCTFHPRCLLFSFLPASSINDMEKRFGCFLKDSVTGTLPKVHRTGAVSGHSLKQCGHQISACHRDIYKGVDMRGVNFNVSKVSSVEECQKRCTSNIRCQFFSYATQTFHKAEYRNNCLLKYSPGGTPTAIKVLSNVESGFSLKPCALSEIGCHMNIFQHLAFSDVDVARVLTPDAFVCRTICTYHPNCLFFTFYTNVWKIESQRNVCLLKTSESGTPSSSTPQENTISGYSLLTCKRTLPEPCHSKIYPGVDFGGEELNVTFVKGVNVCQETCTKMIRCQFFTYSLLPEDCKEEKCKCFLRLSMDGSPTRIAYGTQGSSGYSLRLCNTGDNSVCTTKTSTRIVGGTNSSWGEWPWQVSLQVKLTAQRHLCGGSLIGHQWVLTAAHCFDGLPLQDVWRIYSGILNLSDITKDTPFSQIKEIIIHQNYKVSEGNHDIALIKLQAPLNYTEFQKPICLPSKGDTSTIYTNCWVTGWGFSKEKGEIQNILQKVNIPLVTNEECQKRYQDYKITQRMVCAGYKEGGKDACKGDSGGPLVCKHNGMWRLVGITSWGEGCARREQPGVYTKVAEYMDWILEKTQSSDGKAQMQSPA
# Method: Functional enzyme assays were conducted in 10 mM Tris HCl, 150 mM NaCl, 10 mM MgCl2, 1 mM CaCl2) and 1 mg/mL BSA (all Sigma UK) pH7.4 at 25° C. in solid black 96 well plates. Briefly 26.5 pM human plasma Kallikrein (purchased from Stratech, UK) or 500 pM rat plasma Kallikrein (expressed and purified in house) were incubated in the absence or presence of increasing concentrations of test peptide for 15 minutes before addition of the fluorogenic substrate Z-PheArg-AMC (Enzo Lifesciences UK) to a final assay concentration of 100 μM in 4% DMSO. Release of AMC was measured using a Pherastar FS (BMG Labtech), excitation 360 nm, emission 460 nm. The rate of the linear phase of the reaction, typically 5 to 45 minutes, was calculated in MARS data analysis software (BMG labtech). The rate was then used to calculate the IC50 and Ki in Prism (GraphPad). A four parameter inhibition non-linear regression equation was used to calculate the IC50.
# Peptides were dissolved as the TFA-salts in their powder form, and stock solutions were usually prepared in water. All solutions were centrifuged and filtered ([…] syringe filters) prior absorption measurement at 280 nm. […] For peptides containing non-natural amino acids with suspected chromophoric properties (i.e. NorHar, 4PhenylPro, 3Pal, 4Pal, Tic, 4GuanPhe, 4,4-BPAI, 3,3-DPA, 1NAI, 2NAI, 4BenzylPro, Ind) concentrations were determined by weighing the powder and dissolving the peptide in a defined quantity of water.
# [2] = Table 24b, residue 7 modifications
# [3] = Table 24b, ratio of Ki to wild type
# [4] = residue 6 modification in the context of Ac-(06-34-18) Phe2 Tyr4, read-out: Ki (nM) Ac-(06-34-18) Phe2 Tyr4
# [5] = Table 24c, ratio of Ki to wild type
# [6] = Table 24c, residue 8 modifications
# [7] = residue 6 modification in the context of Ac-(06-34-18), read-out: Ki (nM) Ac-(06-34-18)
compound,measurement,setting,value
CC(=O)N[C@H]1CSCc2cc3cc(c2)CSC[C@H](NC(=O)[C@H](CCCNC(=N)N)NC(=O)[C@H](C)NC(=O)[C@@H]2CCCN2C(=O)[C@H](Cc2cccc4ccccc24)NC(=O)[C@H](CO)NC1=O)C(=O)N[C@@H](CC(C)C)C(=O)N[C@@H](Cc1c[nH]cn1)C(=O)N[C@@H](CCC(N)=O)C(=O)N[C@@H](CC(=O)O)C(=O)N[C@@H](CC(C)C)C(=O)N[C@H](C(N)=O)CSC3 [Ac-(06-34-18) 1NAL2] (Ac-CS[1Nal]PARCLHQDLC-NH2; linker 1-7-13 via TBMB),"Observable in rat plasma, for days",[1],2 days
CC(=O)N[C@H]1CSCc2cc3cc(c2)CSC[C@H](NC(=O)[C@H](CCCNC(=N)N)NC(=O)[C@H](Cc2ccc(O)cc2)NC(=O)[C@@H]2CCCN2C(=O)[C@H](Cc2ccccc2)NC(=O)[C@H](CO)NC1=O)C(=O)N[C@@H](CC(C)C)C(=O)N[C@@H](Cc1cn(C)cn1)C(=O)N[C@@H](CCC(N)=O)C(=O)N[C@@H](CC(=O)O)C(=O)N[C@@H](CC(C)C)C(=O)N[C@H](C(N)=O)CSC3 [Ac-(06-34-18) Phe2 Tyr4 His1Me7] (Ac-CSFPYRCL[His(τ-Me)]QDLC-NH2; linker 1-7-13 via TBMB),pKi,human plasma Kallikrein; [2],8.00
same,F (Kivar/KiWT),human plasma Kallikrein; [3],23
CC(=O)N[C@H]1CSCc2cc3cc(c2)CSC[C@H](NC(=O)[C@H](CCCNC(=N)N)NC(=O)[C@H](Cc2ccc(O)cc2)NC(=O)[C@@H]2CCCN2C(=O)[C@H](Cc2ccccc2)NC(=O)[C@H](CO)NC1=O)C(=O)N[C@@H](CC(C)C)C(=O)N[C@@H](Cc1cncn1C)C(=O)N[C@@H](CCC(N)=O)C(=O)N[C@@H](CC(=O)O)C(=O)N[C@@H](CC(C)C)C(=O)N[C@H](C(N)=O)CSC3 [Ac-(06-34-18) Phe2 Tyr4 His3Me7] (Ac-CSFPYRCL[His(π-Me)]QDLC-NH2; linker 1-7-13 via TBMB),pKi,human plasma Kallikrein; [2],6.53
same,F (Kivar/KiWT),human plasma Kallikrein; [3],696
CC[C@H](C)[C@@H]1NC(=O)[C@@H]2CSCc3cc(cc(c3)CSC[C@H](NC(C)=O)C(=O)N[C@@H](CO)C(=O)N[C@@H](Cc3ccccc3)C(=O)N3CCC[C@H]3C(=O)N[C@@H](Cc3ccc(O)cc3)C(=O)N[C@@H](CCCNC(=N)N)C(=O)N2)CSC[C@@H](C(N)=O)NC(=O)[C@H](CC(C)C)NC(=O)[C@H](CC(=O)O)NC(=O)[C@H](CCC(N)=O)NC(=O)[C@H](Cc2c[nH]cn2)NC1=O [Ac-(06-34-18) Phe2 Tyr4 Ile6] (Ac-CSFPYRCIHQDLC-NH2; linker 1-7-13 via TBMB),Ki,human plasma Kallikrein; [4],1.46 nM
CC(=O)N[C@H]1CSCc2cc3cc(c2)CSC[C@H](NC(=O)[C@H](CCCNC(=N)N)NC(=O)[C@H](Cc2ccc(O)cc2)NC(=O)[C@@H]2CCCN2C(=O)[C@H](Cc2ccccc2)NC(=O)[C@H](CO)NC1=O)C(=O)N[C@@H](CC(C)C)C(=O)N(CCc1c[nH]cn1)CC(=O)N[C@@H](CCC(N)=O)C(=O)N[C@@H](CC(=O)O)C(=O)N[C@@H](CC(C)C)C(=O)N[C@H](C(N)=O)CSC3 [Ac-(06-34-18) Phe2 Tyr4 N-His7] (Ac-CSFPYRCL[Gly(N-CH2CH2-imidazol-4-yl)]QDLC-NH2; linker 1-7-13 via TBMB),F (Kivar/KiWT),"human plasma Kallikrein; Table 25b, fold change of Ki of variant compared to WT",519
same,pKi,"human plasma Kallikrein; Table 25b, peptide backbone modifications in Loop2, human plasma kallikrein",6.66
CC(=O)N[C@H]1CSCc2cc3cc(c2)CSC[C@H](NC(=O)[C@H](CCCNC(=N)N)NC(=O)[C@H](Cc2ccc(O)cc2)NC(=O)[C@@H]2CCCN2C(=O)[C@H](Cc2ccccc2)NC(=O)[C@H](CO)NC1=O)C(=O)N[C@@H](Cc1ccccc1)C(=O)N[C@@H](Cc1c[nH]cn1)C(=O)N[C@@H](CCC(N)=O)C(=O)N[C@@H](CC(=O)O)C(=O)N[C@@H](CC(C)C)C(=O)N[C@H](C(N)=O)CSC3 [Ac-(06-34-18) Phe2 Tyr4 Phe6] (Ac-CSFPYRCFHQDLC-NH2; linker 1-7-13 via TBMB),Ki,human plasma Kallikrein; [4],14.9 nM
CC(=O)N[C@H]1CSCc2cc3cc(c2)CSC[C@H](NC(=O)[C@H](CCCNC(=N)N)NC(=O)[C@H](Cc2ccc(O)cc2)NC(=O)[C@@H]2CCCN2C(=O)[C@H](Cc2ccccc2)NC(=O)[C@H](CO)NC1=O)C(=O)N[C@@H](CC(C)C)C(=O)N[C@@H](Cc1ccccc1)C(=O)N[C@@H](CCC(N)=O)C(=O)N[C@@H](CC(=O)O)C(=O)N[C@@H](CC(C)C)C(=O)N[C@H](C(N)=O)CSC3 [Ac-(06-34-18) Phe2 Tyr4 Phe7] (Ac-CSFPYRCLFQDLC-NH2; linker 1-7-13 via TBMB),pKi,human plasma Kallikrein; [2],7.37
same,F (Kivar/KiWT),human plasma Kallikrein; [3],102
CC(=O)N[C@H]1CSCc2cc3cc(c2)CSC[C@H](NC(=O)[C@H](CCCNC(=N)N)NC(=O)[C@H](Cc2ccc(O)cc2)NC(=O)[C@@H]2CCCN2C(=O)[C@H](Cc2ccccc2)NC(=O)[C@H](CO)NC1=O)C(=O)N[C@@H](CC(C)C)C(=O)N[C@@H](Cc1cccs1)C(=O)N[C@@H](CCC(N)=O)C(=O)N[C@@H](CC(=O)O)C(=O)N[C@@H](CC(C)C)C(=O)N[C@H](C(N)=O)CSC3 [Ac-(06-34-18) Phe2 Tyr4 Thi7] (Ac-CSFPYRCL[2Thi]QDLC-NH2; linker 1-7-13 via TBMB),pKi,human plasma Kallikrein; [2],7.47
same,F (Kivar/KiWT),human plasma Kallikrein; [3],80
CC(=O)N[C@H]1CSCc2cc3cc(c2)CSC[C@H](NC(=O)[C@H](CCCNC(=N)N)NC(=O)[C@H](Cc2ccc(O)cc2)NC(=O)[C@@H]2CCCN2C(=O)[C@H](Cc2ccccc2)NC(=O)[C@H](CO)NC1=O)C(=O)N[C@@H](CC(C)C)C(=O)N[C@@H]([C@@H](C)O)C(=O)N[C@@H]([C@@H](C)O)C(=O)N[C@@H](CCC(=O)O)C(=O)N[C@@H](CC(C)C)C(=O)N[C@H](C(N)=O)CSC3 [Ac-(06-34-18) Phe2 Tyr4 Thr7 Thr8 Glu9] (Ac-CSFPYRCLTTELC-NH2; linker 1-7-13 via TBMB),F (Kivar/KiWT),human plasma Kallikrein; [5],193
CC(=O)N[C@H]1CSCc2cc3cc(c2)CSC[C@H](NC(=O)[C@H](CCCNC(=N)N)NC(=O)[C@H](Cc2ccc(O)cc2)NC(=O)[C@@H]2CCCN2C(=O)[C@H](Cc2ccccc2)NC(=O)[C@H](CO)NC1=O)C(=O)N[C@@H](CC(C)C)C(=O)N[C@@H](Cc1c[nH]cn1)C(=O)N[C@@H]([C@@H](C)O)C(=O)N[C@@H](CC(=O)O)C(=O)N[C@@H](CC(C)C)C(=O)N[C@H](C(N)=O)CSC3 [Ac-(06-34-18) Phe2 Tyr4 Thr8] (Ac-CSFPYRCLHTDLC-NH2; linker 1-7-13 via TBMB),pKi,human plasma Kallikrein; [6],8.37
same,F (Kivar/KiWT),human plasma Kallikrein; [5],10
CC(=O)N[C@H]1CSCc2cc3cc(c2)CSC[C@H](NC(=O)[C@H](CCCNC(=N)N)NC(=O)[C@H](Cc2ccc(O)cc2)NC(=O)[C@@H]2CCCN2C(=O)[C@H](Cc2ccccc2)NC(=O)[C@H](CO)NC1=O)C(=O)N[C@@H](CC(C)C)C(=O)N[C@@H](Cc1c[nH]cn1)C(=O)N[C@@H](CCC(N)=O)CC(=O)N[C@@H](CC(=O)O)C(=O)N[C@@H](CC(C)C)C(=O)N[C@H](C(N)=O)CSC3 [Ac-(06-34-18) Phe2 Tyr4 bHGln8] (Ac-CSFPYRCLH[β3hQ]DLC-NH2; linker 1-7-13 via TBMB),pKi,human plasma Kallikrein; [6],7.77
same,F (Kivar/KiWT),human plasma Kallikrein; [5],40
CC(=O)N[C@H]1CSCc2cc3cc(c2)CSC[C@H](NC(=O)[C@H](CCCNC(=N)N)NC(=O)[C@H](C)NC(=O)[C@@H]2CCCN2C(=O)[C@H](Cc2c[nH]c4ccccc24)NC(=O)[C@H](CO)NC1=O)C(=O)N[C@@H](c1ccccc1)C(=O)N[C@@H](Cc1c[nH]cn1)C(=O)N[C@@H](CCC(N)=O)C(=O)N[C@@H](CC(=O)O)C(=O)N[C@@H](CC(C)C)C(=O)N[C@H](C(N)=O)CSC3 [Ac-(06-34-18) Phg6] (Ac-CSWPARC[Phg]HQDLC-NH2; linker 1-7-13 via TBMB),Ki,human plasma Kallikrein; [7],0.18 nM
CC(=O)N[C@H]1CSCc2cc3cc(c2)CSC[C@H](NC(=O)[C@H](CCCNC(=N)N)NC(=O)[C@H](C)NC(=O)[C@@H]2CCCN2C(=O)[C@H](Cc2c[nH]c4ccccc24)NC(=O)[C@H](CO)NC1=O)C(=O)N[C@@H](C(C)(C)C)C(=O)N[C@@H](Cc1c[nH]cn1)C(=O)N[C@@H](CCC(N)=O)C(=O)N[C@@H](CC(=O)O)C(=O)N[C@@H](CC(C)C)C(=O)N[C@H](C(N)=O)CSC3 [Ac-(06-34-18) tBuGly6] (Ac-CSWPARC[Tle]HQDLC-NH2; linker 1-7-13 via TBMB),Ki,human plasma Kallikrein; [7],0.49 nM

# — patent US10118947B2, “Modulation of structured polypeptide specificity” (BICYCLE THERAPEUTICS LIMITED, priority 2013, dated 2018)
